This is an account of results in PMC10547238, “Discovery of Potent Tetrazole Free Fatty Acid Receptor 2 Antagonists” (Journal of Medicinal Chemistry, 2023).

In one data set the target is T1, human FFA2-eYFP (Homo sapiens, UniProt O15552).
T1 construct: expressed in transfected cells; host or cells: membranes of Flp-In T-Rex 293 cells induced to express the construct
T1 sequence (O15552 1-330): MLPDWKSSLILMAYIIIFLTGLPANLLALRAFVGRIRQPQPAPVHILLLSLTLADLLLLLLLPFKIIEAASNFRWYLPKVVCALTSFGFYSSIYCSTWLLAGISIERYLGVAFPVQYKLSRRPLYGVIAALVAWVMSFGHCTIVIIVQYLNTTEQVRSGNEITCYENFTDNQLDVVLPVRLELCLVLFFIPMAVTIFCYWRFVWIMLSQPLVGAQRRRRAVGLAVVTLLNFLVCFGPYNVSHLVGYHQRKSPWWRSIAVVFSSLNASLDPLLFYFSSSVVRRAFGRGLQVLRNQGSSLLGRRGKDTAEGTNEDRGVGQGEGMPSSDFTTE
Description: [35S]GTPγS incorporation assay, membranes of Flp-In T-Rex 293 cells. The data set is classed as biochemical. The note with it: for GTPγS pIC50: hFFA2, propionate at EC80, mean ± SEM, three or more experiments; for LLEGTPγS: pIC50, GTPγS – ClogP. Here is the method: The activity of the compounds on FFA2 was evaluated in two different functional antagonist assays, both using propionate at EC80 as the agonist. The GTPγS assay reflects receptor activation by directly assessing G protein recruitment, whereas the cAMP assay, performed in whole cells, reflects a physiologically relevant downstream second messenger.
Functional activity of the compounds were tested in a [^35S]GTPγS incorporation assay using membranes of Flp-In T-Rex 293 cells induced to express human FFA2-eYFP. […] The reaction was initiated by addition of [^35S]GTPγS (100 nCi per reaction) containing 1 μM GDP and incubated at 30 °C for 60 min. The reaction was terminated by rapid vacuum filtration through GF/C glass fiber filter-bottom 96-well microplates (PerkinElmer Life Sciences, Beaconsfield, UK) using a UniFilter FilterMate Harvester (PerkinElmer). Unbound radioligands were removed from filters by three washes with ice-cold PBS. MicroScint-20 (PerkinElmer) was added to dried filters, and [^35S]GTPγS binding was quantified by liquid scintillation spectroscopy.

Another data set in a line: Microsomal stability. The data set is classed as in vitro ADME, mouse. Here is the method: The assay was performed in duplicates essentially as described previously,[58] using male CD1 mouse liver microsomes (Thermo Fischer Scientific, 20 mg/mL), NADPH-regenerating agent Solution A and Solution B (Promega), potassium phosphate buffer (100 mM, pH 7.4), and test compounds (1 mM, diluted from 10 mM DMSO stock in the buffer). The samples were analyzed in an Agilent 6130 Mass Spectrometer instrument using electron spray ionization (ESI) coupled to an Agilent 1200 HPLC system (ESI-LCMS) with a C18 reverse phase column (Zorbax Eclipse XBD-C18, 4.6 mm × 50 mm) using a linear gradient of the binary solvent system of 100% mobile phase A (water:MeCN:formic acid, 95:5:0.1 v/v%) to 100% mobile phase B (MeCN:formic acid, 100:0.1 v/v %) in 6 min, with a flow rate of 1 mL/min.
To a pre-warmed solution of potassium phosphate buffer (135.6 μL) in an Eppendorf tube at 37 °C were added Solution A (7.5 μL), Solution B (1.5 μL), microsomes (3.9 μL), and the test compound (1 mM, 1.5 μL, final concentration = 10 μM). The tube was briefly vortexed and incubated at 37 °C in a thermomixer. At 0, 15, 30, 45, and 60 min, 25 μL of each sample was transferred to an ice-cold solution containing an internal standard (5 μM in MeCN, 12.5 μL). The sample was briefly vortexed and centrifuged for 5 min at 10.000g. The supernatant (25 μL) was transferred to HPLC vial and analyzed by ESI-LCMS in single ion mode. The data was analyzed using GraphPad Prism (version 9).

Data set [1] can be described thus: Lipophilicity (logD7.4), octanol/PBS7.4 shake flask. The data set is classed as physicochemical. Particulars: 1-octanol/PBS7.4, pH 7.4; mean of two independent experiments. Here is the method: The assay was performed in duplicates essentially as previously described.[58] A glass vial with a screw cap (8 mL) was charged with the test compound (40 μL, 10 mM in DMSO), PBS7.4 (0.01 M, 1980 μL), and 1-octanol (1980 μL). The vial was capped and sealed with a Parafilm and shaken at 700 rpm using an IKA KS 125 basic shaker for 24 h at 25 °C. The Parafilm was removed, and the sample was allowed to equilibrate for 1 h before analysis. One hundred microliters of the octanol phase was withdrawn and diluted 1:10 with MeOH (+0.1% TFA)/MilliQ water (4:1, v/v) and analyzed by HPLC. The interface was removed, and the PBS7.4 phase analyzed directly by HPLC. All analysis was performed in duplicates, and log D7.4 values were calculated from the peak areas (mAU·min) and adjusted for difference in injection volume and concentration-absorption effects from the solvents, using two calibration points per compound per solvent, and dilution of the octanol phase.

The nature of data set [2]: Chemical stability in PBS7.4. The class given is physicochemical. Here is the method: Duplicates of 1 mL of a 50 μM solution were prepared by adding the 10 mM stock solution to a 1.5 mL Eppendorf tube and diluting it with PBS7.4. The Eppendorf tubes were incubated at 37 °C with gentle shaking (650 rpm) using an Eppendorf Thermomixer. The samples were briefly vortexed, and 50 μL aliquots were withdrawn at the time points 0, 12, 48, etc.; added to 250 μL vials; and analyzed immediately by HPLC. The chemical stability in PBS7.4 was determined at every time point in percentage relative to the 0 h time point.

Data set [3] is described as follows: Kinetic aqueous solubility. The data set is classed as physicochemical. The note with it: phosphate buffer; kinetic solubility in PBS at pH 7.4 and 25 °C. Here is the method:
Twenty microliters of a 10 mM compound stock solution in DMSO was added to an Eppendorf tube containing 980 μL of phosphate buffer (10 mM, pH = 7.4). The samples were incubated in an Eppendorf Thermomixer (25 °C, 800 rpm) for 24 h. Afterward, the samples were centrifuged for 5 min at 11,000 rpm and the supernatant was filtered (0.2 μm PTFE membrane) before analysis by HPLC. Each compound was analyzed in duplicate. The solubility was calculated from the peak area relative to the reference samples (200 μM in MeOH/MilliQ H2O, 60/40, v/v).

Where [4] appears, read: % recovered after 60 min, mouse liver microsomes.
The mark [5] stands for this setting: remaining, PBS7.4 at 37 °C, 10 days.

Broadly, the logD is lipophilicity at a set pH, counting ionised and neutral species. Usually solubility stands for how much of the substance goes into solution per volume. Lower therefore signals a poorly soluble substance. The term IC50 denotes the point on the concentration scale where inhibition reaches its midpoint. Higher therefore signals weaker potency.

In brackets after ≈: the same amount, converted by molar mass. Several values for one entry are separate records, joined by “and”; a condition that tells them apart may be missing. Identical values can stand only once. Bounds are passed on as bounds.

Regarding `O=C(O)C[C@H](Cc1ccc(C(F)(F)F)cc1)NC(=O)Cc1cccc(Cl)c1` [Compound 3, reference compound], at human FFA2-eYFP, the “GTPγS pIC50” value is 6.68 ± 0.05 and the LLEGTPγS is listed as 2.47. The microsomal stability in “Microsomal stability” (setting [4]) worked out at 91%. This compound also displayed a logD at 25 h in data set [1] of 1.39 ± 0.01. For the same compound, in data set [2] (setting [5]), the chemical stability was 90%. In data set [3], this compound displayed a solubility at 24 h of 166 µM (≈ 66.4 µg/mL).

As to `O=C(Cc1cncc(Br)c1)N[C@@H](Cc1ccc(C(F)(F)F)cc1)Cc1nnn[nH]1` [Compound 16w, (S)-3-(2-((1-(1H-Tetrazol-5-yl)-3-(4-(trifluoromethyl)phenyl)propan-2-yl)amino)-2-oxoethyl)-5-bromopyridin-1-ium 2,2,2-trifluoroacetate], the “GTPγS pIC50” value on human FFA2-eYFP is reported as 8.21 ± 0.09. The LLEGTPγS on human FFA2-eYFP is 6.28. Also, the microsomal stability in “Microsomal stability” (setting [4]) and in the data set “Microsomal stability” (supplementary CSV) was 92% throughout. Also, in “Microsomal stability” (mouse liver microsomes), the in vitro clearance result is recorded as “low in vitro clearance”. The compound further yielded a logD at 25 h in data set [1] of 0.71 ± 0.06. In addition, the chemical stability in data set [2] (setting [5]) and in data set [2] (supplementary CSV) was >95% throughout. Further, in data set [3], the concentration in solution (solubility at 24 h) was 183 µM (≈ 85.9 µg/mL).

As for `COc1cccc(CC(=O)N[C@@H](Cc2ccc(C(F)(F)F)cc2)Cc2nnn[nH]2)c1` [Compound 16l, (S)-N-(1-(1H-Tetrazol-5-yl)-3-(4-(trifluoromethyl)phenyl)propan-2-yl)-2-(3-methoxyphenyl)acetamide], on human FFA2-eYFP, the “GTPγS pIC50” value turned out to be 8.46 ± 0.05. Besides, on human FFA2-eYFP (inhibition of propionate at FFA2), the IC50 was 3 to 4 nM and 4 nM. This compound came in with an LLEGTPγS on human FFA2-eYFP of 5.98. The microsomal stability in “Microsomal stability” (setting [4]) and in “Microsomal stability” (supplementary CSV) was 93% throughout. The in vitro clearance entry in the data set “Microsomal stability” (mouse liver microsomes) is listed as “low in vitro clearance”. The compound also gave a logD at 25 h in data set [1] of 0.84 ± 0.01. Besides, the chemical stability in data set [2] (setting [5]) and in data set [2] (supplementary CSV) was >95% throughout. In data set [3], the solubility at 24 h is 176 µM (≈ 73.8 µg/mL).
